Results from patent publication US20080176932A1, “Pharmaceutical Compositions Containing Baicalein And Baicalin With Synergistic Effect In Tumor Treatment” (priority 2005, published 2008).
Like-named read-outs stand apart in the source and are kept apart here.

Legend:
[1] = test system: human liver cancer cell line HepG2; experiment: MTT growth inhibition, baicalein and baicalin single or combination; format: cell-based
From the text: The results of experiments with human liver cancer cell line HepG2 are illustrated in Table 1;

[2] = test system: Human colon cancer cell line HCT116; experiment: as above; format: cell-based
From the text: Human colon cancer cell line HCT116—Table 2;

[3] = test system: Human hung cancer cell line A549; experiment: as above; format: cell-based
From the text: Human hung cancer cell line A549—Table 3;

[4] = test system: Human gastric cancer cell line MKN28; experiment: as above; format: cell-based
From the text: Human gastric cancer cell line MKN28—Table 4;

[5] = test system: Human leukemia cell line HL60; experiment: as above; format: cell-based
From the text: Human leukemia cell line HL60—Table 8.

[6] = test system: Murine melanoma cell line B 16; experiment: Solid tumor transplant model, baicalein and baicalin; format: in vivo; details: B16 mice, day 1-10; for Final Tumor WT. (g) Mean ± SD / Tumor Growth Inhibition %: day 15
Procedure: C57BL/6 female mice (weight approximately 20 g) were used in this study. Murine melanoma cell line B 16 cells, 2×10^6 tumor cells were implanted s.c. into the armpit of each mice after two passenges in vitro cultured. On the next day after implantation, mice were randomly grouped at 10 per group and received 0.1 ml/10 g weight of the drugs. […] The number of mice of each group was 10. Mice were weighed before and post the treatment. Animals were killed on day 15, and the tumors were removed and weighted.

[7] = test system: L1210 cells; format: in vivo; details: day 1-10; for ILS(%) increase of life span: L1210 mice
Procedure: L1210 cells on the growth phase were injected at 1×10^5 cells via I.P. into BDF1 female mice (weight approximately 20 g). The next day of implantation, mice were grouped, and received an injection of 0.1 ml/10 g weight of the drug. […] The number of mice of each group was 10. Mice were weighed before and after the treatment. Survival time of each mouse was recorded. The results of changes in increasing of life span of mice were used in assessment of response. The increase of life span was determined as; increase of life span rate=(median survival time of treated animals/median survival time of control animals−1)×100%, the data were analyzed by t-test.

[8] = test system: Human esophagus cancer cell line TE2
[9] = test system: Human breast cancer cell line MCF-7
[10] = test system: Human prostate cancer cell line PC3

O=C(O)[C@H]1O[C@@H](Oc2cc3oc(-c4ccccc4)cc(=O)c3c(O)c2O)[C@H](O)[C@@H](O)[C@@H]1O [BG, baicalin]
Inhibition of cell growth (%) ([1]; single dose 2.5 μm): 16.63 ± 2% | Inhibition of cell growth (%) ([1]; single dose 5 μm): 16.8 ± 2% | Inhibition of cell growth (%) ([1]; single dose 10 μm): 34.93 ± 3.8% | Inhibition of cell growth (%) ([1]; single dose 20 μm): 50 ± 2.9% | Inhibition of cell growth (%) ([1]; single dose 40 μm): 86.69 ± 3% | Inhibition of cell growth (%) ([2]; single dose 2.5 μm): 17 ± 2% | Inhibition of cell growth (%) ([2]; single dose 5 μm): 20 ± 3.2% | Inhibition of cell growth (%) ([2]; single dose 10 μm): 27 ± 3% | Inhibition of cell growth (%) ([2]; single dose 20 μm): 33.75 ± 3% | Inhibition of cell growth (%) ([2]; single dose 40 μm): 90 ± 2% | Inhibition of cell growth (%) ([3]; single dose 2.5 μm): 9.8 ± 2% | Inhibition of cell growth (%) ([3]; single dose 5 μm): 17 ± 3% | Inhibition of cell growth (%) ([3]; single dose 10 μm): 30.58 ± 3.2% | Inhibition of cell growth (%) ([3]; single dose 20 μm): 53.58 ± 4% | Inhibition of cell growth (%) ([3]; single dose 40 μm): 92 ± 3% | Inhibition of cell growth (%) ([4]; single dose 2.5 μm): 5.2 ± 2% | Inhibition of cell growth (%) ([4]; single dose 5 μm): 12 ± 3% | Inhibition of cell growth (%) ([4]; single dose 10 μm): 30.2 ± 2.9% | Inhibition of cell growth (%) ([4]; single dose 20 μm): 62 ± 3.2% | Inhibition of cell growth (%) ([4]; single dose 40 μm): 85.22 ± 2% | Inhibition of cell growth (%) ([5]; single dose 2.5 μm): 5 ± 2% | Inhibition of cell growth (%) ([5]; single dose 5 μm): 8.6 ± 3% | Inhibition of cell growth (%) ([5]; single dose 10 μm): 21 ± 4% | Inhibition of cell growth (%) ([5]; single dose 20 μm): 45.1 ± 2.9% | Inhibition of cell growth (%) ([5]; single dose 40 μm): 82.7 ± 2.3% | Final Tumor WT. (g) Mean ± SD ([6]; BG 25 mg/kg i.p.): 1.81 ± 0.1 g | Tumor Growth Inhibition % ([6]; BG 25 mg/kg i.p.): 16.97% | Final Tumor WT. (g) Mean ± SD ([6]; BG 50 mg/kg i.p.): 1.77 ± 0.117 g | Tumor Growth Inhibition % ([6]; BG 50 mg/kg i.p.): 18.8% | Final Tumor WT. (g) Mean ± SD ([6]; BG 100 mg/kg i.p.): 1.51 ± 0.11 g | Tumor Growth Inhibition % ([6]; BG 100 mg/kg i.p.): 30.7% | Final Tumor WT. (g) Mean ± SD ([6]; BG 200 mg/kg i.p.): 1.28 ± 0.07 g | Tumor Growth Inhibition % ([6]; BG 200 mg/kg i.p.): 41.28% | Weight Change % ([6]; BG 25 mg/kg i.p.): <5% | Weight Change % ([6]; BG 50 mg/kg i.p.): <5% | Weight Change % ([6]; BG 100 mg/kg i.p.): <5% | Weight Change % ([6]; BG 200 mg/kg i.p.): <5% | Number of mice Surviving through 15 days/total number ([7]; BG 25 mg/kg i.p.): 10/10 | Number of mice Surviving through 15 days/total number ([7]; BG 50 mg/kg i.p.): 10/10 | Number of mice Surviving through 15 days/total number ([7]; BG 100 mg/kg i.p.): 10/10 | Number of mice Surviving through 15 days/total number ([7]; BG 200 mg/kg i.p.): 10/10 | ILS(%) increase of life span ([7]; BG 25 mg/kg i.p.): 17.3% | ILS(%) increase of life span ([7]; BG 50 mg/kg i.p.): 27.55% | ILS(%) increase of life span ([7]; BG 100 mg/kg i.p.): 38.27% | ILS(%) increase of life span ([7]; BG 200 mg/kg i.p.): 50% | Inhibition of cell growth (%) ([8]; single dose 2.5 μm): 6.2 ± 1.8% | Inhibition of cell growth (%) ([8]; single dose 10 μm): 28.2 ± 2.5% | Inhibition of cell growth (%) ([8]; single dose 20 μm): 49.8 ± 1.78% | Inhibition of cell growth (%) ([8]; single dose 40 μm): 72.7 ± 2.1% | Inhibition of cell growth (%) ([9]; single dose 2.5 μm): 0.5 ± 2.7% | Inhibition of cell growth (%) ([9]; single dose 5 μm): 10.2 ± 1% | Inhibition of cell growth (%) ([9]; single dose 10 μm): 48.02 ± 2% | Inhibition of cell growth (%) ([9]; single dose 20 μm): 60.35 ± 3% | Inhibition of cell growth (%) ([10]; single dose 2.5 μm): 1 ± 3% | Inhibition of cell growth (%) ([10]; single dose 5 μm): 17.9 ± 5% | Inhibition of cell growth (%) ([10]; single dose 10 μm): 47 ± 8% | Inhibition of cell growth (%) ([10]; single dose 20 μm): 62 ± 7% | Inhibition of cell growth (%) ([10]; single dose 40 μm): 88 ± 7%
